pIC50: −log10 of the molar value.
How the values were obtained:
XG-12 myeloma cell line = test: Cell cycle measurement (BrdU/PI, S phase), XG-12; assay type: cell-based, human; settings: day 3 of culture
Method: The cell cycle distribution of the cell lines was assessed by flow cytometry analysis by propidium iodide (PI) and bromodeoxyuridine (BrdU) double-staining. Thirty minutes before stopping the culture, BrdU (10 μM) were added to the cultures and then the cells were collected by centrifugation, washed twice in phosphate buffer saline (PBS) and fixed in 70% ethanol for 20 minutes at room temperature. After two washes with PBS, cells were resuspended in 50 μL of 3N HCl, 0.5% Tween 20 and incubated 20 minutes at 20° C. to denature DNA. […] The fluorescence of FL1-H (BrdU) and FL2-A (PI) were analyzed on a FACScan flow cytometer using Cell Quest software (Becton Dickinson).
Two myeloma cell lines (XG-3 and XG-12) that are sensitive to compound A (1-(4-{4-[4-(4-chlorophenyl)-pyrimidin-2-ylamino]-benzoyl}-piperazin-1-yl)-ethanone) were selected for the study. To assess the effect of compound A on myeloma cell survival, the percentage apoptotic cells was determined using binding of annexin V to apoptotic cells. The effect of compound A on the cell cycle was assessed by evaluating the percentage of cells in the S phase of the cell cycle by incorporation of BrdU-FITC. Apoptosis, cell cycle and cell numeration were evaluated daily on a four day culture period on the cell lines using the IC10, IC50 and I90 respective doses of compound A.

10 myeloma cell lines = test: Cell proliferation assay, mean over 10 myeloma cell lines; assay type: cell-based, human; settings: mean determined on 10 myeloma cell lines
Method: Myeloma cells were harvested in the exponential growth phase (at day 3 after culture passage when the cell concentration is around 5×10^5 cells/ml). Cells were washed twice, cultured for 3 hours in RPMI1640 and 10% FCS, washed twice. This makes it possible to remove cell-bound growth factors (in particular recombinant IL-6). Then cells are plated in 96-well flat-bottomed microplates at various concentrations depending on their doubling time: • 5×10^3 cells/well in 100 μl for the cell lines: XG-1, XG-7 • 10^4 cells/well in […] for the cell lines: XG-2, XG-4, XG-6, XG-11, PRMI8226, L363 • 2×10^4 cells/well in 100 μl for the cell lines: XG-3, XG-12, XG-13, XG-14, XG-19, XG-20
The culture medium used were: • PRMI1640, 10% FCS and 0.5 ng/ml of IL-6 for XG-1, XG-2, XG-3, XG-4, XG-6, XG-7, XG-11, XG-12, XG-13, XG-19, XG-20 cells • X-VIVO20 and 0.5 ng/ml IL-6 for XG-14 cells • PRMI1640 and 10% FCS for RPMI8226 and L363 cells
The diluted compounds, DMSO or control culture medium were added in 100 μl at the start of the culture. Three culture wells were done for one compound dilution and the experiments were done twice (finally six culture wells for one compound dilution).
Cells were cultured for 4 days. Eight hours before the end of the culture, 0.5 μCi of tritiated thymidine were added in 50 μl of RPMI1640 and 10% FCS. Cells were then extracted with a cell collector and the thymidine incorporation was determined using a beta cell counter.
For each experiment, the mean tritiated thymidine incorporations (mean values determined on three culture wells) were plotted against the logarithmic concentrations of the compound. The curves were fitted with exponential regression, which was determined using the concentrations defining the inhibition response (usually 3-4 concentrations).
The concentrations yielding 50% and 90% inhibition of the proliferation of myeloma cells were determined with these regression curves.

[1] = test system: CD138+ primary myeloma cells; test: Ex vivo survival of primary myeloma cells in bone marrow culture; assay type: cell-based, human; settings: bone marrow cells of 10 myeloma patients, 5 days, 1, 3.3, 10 μM
Method: Bone marrow cells from 10 patients with multiple myeloma (5 patients at diagnosis and 5 relapsing patients) were harvested and mononuclear cells isolated by ficoll hypaque centrifugation.
At day 5, cell numbers were counted and the percentage and counts of myeloma cells were determined by FACS staining using an anti-CD138 monoclonal antibody. This made it possible to assay for viable myeloma cells as CD138 is lost on pre-apoptotic myeloma cells (Jourdan, M. et al. (1998) Br. J. Haematol., 100, 637-648). The percentage and count of CD34 hematopoietic progenitors was also determined with an anti-CD34 monoclonal antibody and FACS labeling.
Bone marrow mononuclear cells from 5 patients with newly diagnosed multiple myeloma or from 5 patients with relapsing multiple myeloma were cultured for 5 days with culture medium and 10% fetal calf serum. […] At the end of culture, cells were counted. Viable myeloma cells were determined using FACS labeling with anti-CD138 monoclonal antibody, as well as viable hematopoietic stem cells using an anti-CD34 monoclonal antibody. Results are expressed as the percentage of viable myeloma cells, non-myeloma cells, or CD34 cells compared to the control culture group without inhibitor.

14 myeloma cell lines = test: Cell proliferation assay (tritiated thymidine incorporation), panel of myeloma cell lines; assay type: cell-based; settings: 14 human myeloma cell lines, 0.04-10 μM, 4 days culture
Method: Myeloma cell lines were passaged every 3-4 days in RPMI640 and 10% fetal calf serum (FCS). For the IL-6 dependent cell lines, 2 ng/ml of freshly thawed IL-6 (Abcys, France) was added at the beginning of the culture. Each cell line has unique phenotypic and HLA characteristics that make it possible to periodically check their identity.
The following cell lines were obtained in B. Klein's laboratory: XG-1, XG-2, XG-3, XG-4, XG-6, XG-7, XG-11, XG-12, XG-13, XG-14, XG-19, XG-20. (Zhang, et al., 1994; Rebouissou, et al., 1998)
RPMI8226 and L363 cell lines were purchased from ATCC.
Myeloma cells were harvested in the exponential growth phase (at day 3 after culture passage when the cell concentration is around 5×10^5 cells/ml). Cells were washed twice, cultured for 3 hours in RPMI1640 and 10% FCS, washed twice. This makes it possible to remove cell-bound growth factors (in particular recombinant IL-6). […]
Cells were cultured for 4 days. […] Cells were then extracted with a cell collector and the thymidine incorporation was determined using a beta cell counter.
For each experiment, the mean tritiated thymidine incorporations (mean values determined on three culture wells) were plotted against the logarithmic concentrations of the compound. The curves were fitted with exponential regression, which was determined using the concentrations defining the inhibition response (usually 3-4 concentrations). […]

SMILES: CC(=O)N1CCN(C(=O)c2ccc(Nc3nccc(-c4ccc(Cl)cc4)n3)cc2)CC1 [Compound A, 1-(4-{4-[4-(4-Chloro-phenyl)-pyrimidin-2-ylamino]-benzoyl}-piperazin-1-yl)-ethanone]
- S phase (%) percentage of cells in the S phase (XG-12 myeloma cell line; XG-12, compound A at IC50 concentration): 37.3%
- S phase (%) percentage of cells in the S phase (XG-12 myeloma cell line; XG-12, compound A at IC90 concentration): 6.8%
- pIC50 (10 myeloma cell lines; Homo sapiens, read-out: mean concentration yielding 50% inhibition): 5.48
- mean concentration yielding 10% inhibition (10 myeloma cell lines): 1 µM
- mean concentration yielding 90% inhibition (10 myeloma cell lines): 10 µM
- survival of primary myeloma cells [1]: inhibits the survival of primary myeloma cells
- inhibition of the proliferation of myeloma cell lines (14 myeloma cell lines): full inhibition of the proliferation of 13 out 14 human myeloma cells
